Results as given in PubChem BioAssay (NCI).
Several values for one entry are separate records, joined by “and”; a condition that tells them apart may be missing. Equal values may be shown once.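 Cultured in 96-well plates, cells were exposed to test compound for 48 hours across five concentrations. At the GI50, growth is halved. TGI: total growth inhibition.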

Assays:
Assay in all cases: NCI-60 cell line screen, 48 h
UO-31 renal = test system: UO-31 renal
A498 renal = test system: A498 renal
HS 578T breast = test system: HS 578T breast
MDA-MB-435 = test system: MDA-MB-435
SF-539 CNS = test system: SF-539 CNS
U251 CNS = test system: U251 CNS
LOX IMVI melanoma = test system: LOX IMVI melanoma
OVCAR-8 ovarian = test system: OVCAR-8 ovarian
NCI-H460 lung = test system: NCI-H460 lung
UACC-62 melanoma = test system: UACC-62 melanoma

Compound	GI50 (UO-31 renal)	TGI (UO-31 renal)	GI50 (A498 renal)	TGI (A498 renal)	GI50 (HS 578T breast)	TGI (HS 578T breast)	GI50 (MDA-MB-435)	TGI (MDA-MB-435)	GI50 (SF-539 CNS)	TGI (SF-539 CNS)	GI50 (U251 CNS)	TGI (U251 CNS)	GI50 (LOX IMVI melanoma)	TGI (LOX IMVI melanoma)	GI50 (OVCAR-8 ovarian)	TGI (OVCAR-8 ovarian)	GI50 (NCI-H460 lung)	TGI (NCI-H460 lung)	GI50 (UACC-62 melanoma)	TGI (UACC-62 melanoma)
Nc1nc(N)c2c(n1)NC(c1ccccc1)C1CCc3ccccc3C1=N2 (stereo not given)	2500 nM	13.7 µM	2290 nM	8.66 µM	5.85 µM	30 µM	2.93 µM	12.6 µM	5.81 µM	18.8 µM	4650 nM	17.4 µM	3790 nM	15.1 µM	4.71 µM	25.4 µM	3.81 µM	14.4 µM	3110 nM	18.2 µM
COC(=O)/C=C1/SC(N2N=C(c3cccs3)CC2c2ccc(F)cc2)=NC1=O (stereo not given)	1490 nM	2.9 µM	1810 nM	6.26 µM	4.46 µM	> 100 µM	2.13 µM	4.8 µM	1.86 µM	3.39 µM	1890 nM	3.69 µM	1610 nM	3.06 µM	2.59 µM	7.66 µM	2.19 µM	4.93 µM	1580 nM	3.74 µM
CCOC(=O)c1oc2ccc([N+](=O)[O-])c3c2c1CCC3		> 100 µM		> 100 µM		> 85 µM		> 55.5 µM		39.7 µM		59.2 µM		> 88.1 µM		> 100 µM		> 100 µM		> 54.8 µM
C[n+]1c(-c2ccc(/C=N/NC(=O)c3ccc(C(=O)N/N=C/c4ccc(-c5cn6ccccc6[n+]5C)cc4)cc3)cc2)cn2ccccc21	227000 nM	> 73.3 µM and 955 µM	172000 nM	70.8 µM and 309 µM	> 1000 µM	> 1000 µM	> 1000 µM	> 1000 µM	206 µM	349 µM	197000 nM	347 µM	846000 nM	> 1000 µM	184 µM	323 µM	> 1000 µM	> 1000 µM	177000 nM	316 µM
CN1CCN(Cc2ccc(NC(=O)c3cncc(C#Cc4cncc5nccnc45)c3)cc2C(F)(F)F)CC1	2160 nM	> 50 µM	772 nM	3.22 µM	1.13 µM	7.89 µM	1.34 µM	7.3 µM	0.956 µM	6 µM	5670 nM	13 µM	695 nM	5.48 µM	3.71 µM	24.1 µM	2.21 µM	8.46 µM	1550 nM	7.21 µM
Cn1c2ccccc2c2c3[nH][nH]c(=O)c3c3c4ccccc4[nH]c3c21	2680 nM	24.3 µM	1610 nM	5.79 µM	0.993 µM	5.88 µM	2.03 µM	11.1 µM	1.22 µM	3.12 µM	2090 nM	21.1 µM	1090 nM	6.62 µM	2.9 µM	28 µM	1.57 µM	10.8 µM	2070 nM	5.81 µM
COc1c(-c2ccc(O)c(O)c2)oc2c(O)c(O)cc(O)c2c1=O		> 100 µM		> 100 µM		> 100 µM		> 100 µM		> 100 µM		> 100 µM		29.4 µM		> 100 µM		> 100 µM		> 100 µM
N=C(N)c1ccc(NCCOCCNc2ccc(C(=N)N)cc2)cc1	47200 nM	> 100 µM	17000 nM	94.6 µM	52.8 µM	> 100 µM	81.3 µM	> 100 µM	36.8 µM	> 100 µM	35900 nM	> 100 µM	> 100000 nM	> 100 µM	34.4 µM	> 100 µM	2.94 µM	> 100 µM	29200 nM	> 100 µM
Cc1cc2nc3cc(C)c(N)cc3[n+](-c3ccccc3)c2cc1N	> 100000 nM	> 100 µM	54800 nM	> 100 µM	10.6 µM	> 100 µM	4.68 µM	67 µM	4.39 µM	> 100 µM	945 nM	> 100 µM	4780 nM	> 100 µM	2.83 µM	> 100 µM	3.57 µM	19.7 µM	6190 nM	30.7 µM
NC(N)=Nc1nc2ccc([N+](=O)[O-])cc2[nH]1		> 100 µM		> 100 µM		> 100 µM		> 100 µM		> 100 µM		> 100 µM		> 100 µM		> 100 µM		> 100 µM		> 100 µM
C/C(=N\NC(=S)N1CC2CCC(CC2)C1)c1cccc(C)n1		4.94 µM		13.2 µM		27 µM		19.6 µM	0.464 µM	2.58 µM	408 nM	11.8 µM	179 nM	8.16 µM	0.229 µM	13 µM	0.0633 µM	5.53 µM		6.85 µM
O=c1c(Br)cc2c(-c3ccccc3)c3cc(Br)c(O)c(Br)c3oc-2c1Br		> 100 µM		> 100 µM		> 100 µM		> 100 µM		> 100 µM		> 100 µM		> 100 µM		> 100 µM		> 100 µM		> 100 µM
CCC(=O)Nc1ccccc1C#C/C=C\C#Cc1ccccc1C(F)(F)F	2590 nM	> 50 µM	1680 nM	10.7 µM	1.35 µM	9.19 µM	0.851 µM	1.84 µM	4.2 µM	13.1 µM	2420 nM	> 40.7 µM	5140 nM	> 50 µM	8.04 µM	> 50 µM	1.63 µM	5.88 µM	2380 nM	> 50 µM
O=c1c(NO)c([N+](=O)[O-])cnn1-c1ccccc1		12.9 µM		50 µM		11 µM		3.34 µM		28.9 µM		8.07 µM		3.66 µM		7.48 µM		13.1 µM		10.8 µM
CN1CCN(c2nc(NCCCNc3ccnc4cc(Cl)ccc34)c3ccccc3n2)CC1	2090 nM	5.93 µM	12900 nM	25.6 µM	3.35 µM	19 µM	2.09 µM	4.33 µM	1.74 µM	3.5 µM	3390 nM	10.3 µM	1960 nM	4.2 µM	5.92 µM	20.7 µM	3.53 µM	13.4 µM	1950 nM	3.86 µM
